Measurements published in US12721835B2, “Anticoccidial composition comprising violacein, and use thereof” (CJ CHEILJEDANG CORPORATION, priority 2020, dated 2026).

Experiments:
[1] = system: Eimeria maxima (E. maxima) protozoa; assay: Heat resistance of violacein: protozoal death rate after heat exposure; format: cell-based
Procedure: In the present example, the heat resistance of the violacein was to be evaluated. […] 200,000 Eimeria maxima (E. maxima) protozoa were reacted to the violacein at various concentrations of 0.1 to 100 ppm at a temperature of 41° C. for 4 hours, and the protozoal death rate (%) was measured by the similar method to Example 3 above, and this was shown in FIG. 5 and Table 12. In Table 12 below, the control group means a violacein solution without treating the high temperature condition, and the protozoa alone means a group to which violacein was not treated.

[2] = In vivo safety evaluation: violacein content remaining in body after feeding (LC/MS); settings: chicken (broiler), cecum luminal intestinal contents, oral, 50 ppm in feed; broilers fed feed comprising 50 ppm violacein for 7 days; read-out: Violacein content (mg/kg), Cecum luminal intestinal contents
Procedure: The safety evaluation of violacein was conducted in a breeding facility under the condition described in Example 1. At 7 days of age, broilers were fed a feed comprising 50 ppm violacein for 7 days, and an autopsy was conducted at 14 days of age, and the feed, appendix luminal intestinal contents, blood, spleen, liver and kidney were collected. For the feed used in formulation with the violacein, Daehanfeed Al-Choi product was used.
Each sample of the collected tissue was tested for the content of violacein through the HPLC method. For feed pretreatment, 1 g of each treatment group was weighed and diluted by adding 10 ? of MTBE solution, and then sonication was progressed for 1 hour, and filtration was performed using a […] syringe filter. Then, after evaporating the filtered sample for 1 hour, 1 ? , of 100% methanol was added. In addition, sonication was conducted for 1 minute, and it not dissolved, the supernatant was filtered once more using a […] syringe filter, and then placed in a vial for analysis. […] Then, the samples in which pretreatment was completed were analyzed using a set LC/MS instrument to measure the amount of violacein remaining in a body after feeding, and the result was shown in Table 13 below. In Table 13, ND (not detected) means not detected.

O=C1N=c2ccccc2=C1c1cc(-c2c[nH]c3ccc(O)cc23)[nH]c1O [Violacein, 3-(2-(5-Hydroxyindol-3-yl)-5-oxo-2-pyrrolin-4-ylidene)-2-indolinone]
Death rate according to violacein treatment condition ([1]; 85° C., 10 min, 0.1 ppm): 62% | Death rate according to violacein treatment condition ([1]; 85° C., 10 min, 1 ppm): 89% | Death rate according to violacein treatment condition ([1]; 85° C., 10 min, 10 ppm): 99% | Death rate according to violacein treatment condition ([1]; 85° C., 10 min, 100 ppm): 100% | Death rate according to violacein treatment condition ([1]; 90° C., 10 min, 0.1 ppm): 65% | Death rate according to violacein treatment condition ([1]; 90° C., 10 min, 1 ppm): 88% | Death rate according to violacein treatment condition ([1]; 90° C., 10 min, 10 ppm): 99% | Death rate according to violacein treatment condition ([1]; 90° C., 10 min, 100 ppm): 100% | Death rate according to violacein treatment condition ([1]; 95° C., 10 min, 0.1 ppm): 69% | Death rate according to violacein treatment condition ([1]; 95° C., 10 min, 1 ppm): 90% | Death rate according to violacein treatment condition ([1]; 95° C., 10 min, 10 ppm): 99% | Death rate according to violacein treatment condition ([1]; 95° C., 10 min, 100 ppm): 100% | Death rate according to violacein treatment condition ([1]; Control group (no high temperature), 0.1 ppm): 64% | Death rate according to violacein treatment condition ([1]; Control group (no high temperature), 1 ppm): 85% | Death rate according to violacein treatment condition ([1]; Control group (no high temperature), 10 ppm): 100% | Death rate according to violacein treatment condition ([1]; Control group (no high temperature), 100 ppm, 41° C. 4 hours): 100% | Heat resistance (killing efficacy after high temperature) ([1]; high temperature (80 to 95° C.), 10 minutes): the protozoal killing efficacy of violacein did not appear | concentration at 7 days of feeding [2]: 2100 ng/g
